In experiment [1] the test system is human recombinant calprotectin. In words: Fluorescence polarization affinity measurement of fluorescein-labelled peptides. It is filed as binding. How it is done:
The reaction mixture was incubated at 30° C. for 1 hr, and the completion of the reaction was assessed by LCMS. The reaction was stopped by addition of HCOOH (200 μL) and the cyclized peptide was lyophilized. The final purification was performed as before with a reversed-phase C18 column (X-bridge peptide BEH C18 5 μm, 300 Å, 10×250 mm, Waters) applying a flow rate of 6 mL/min and an appropriate linear gradient in 40 min. Fractions containing the desired peptide were lyophilized. The purity of the peptides was assessed by analysing around 20 μg of peptide by RP-HPLC (1260 HPLC system, Agilent) using a C18 column (ZORBAX 300SB-C18, 5 μm, 300 Å, 4.6×250 mm, Agilent). Peptides were run at a flow rate of 1 mL min^−1 with a linear gradient of 0-100% of solvent B over 15 min (A: 94.9% H2O, 5% ACN and 0.1% TFA; B: 99.9% ACN and 0.1% TFA). The mass was determined by electrospray ionization mass spectrometry (ESI-MS) in positive ion mode on a single quadrupole liquid chromatography mass spectrometer (LCMS-2020, Shimadzu). In order to measure the affinity of selected and synthesized peptides in fluorescence polarization, calprotectin was serially diluted in 20 mM HEPES, 100 mM NaCl, 2 mM CaCl2, pH 7.5, 1 mM DTT with 0.01% v/v Tween-20. 16 μL of protein were added to 4 μL of the fluorescent peptide (20 nM final concentration) in 96-well microtiter plates (black, half-area). Fluorescence anisotropy was measured on a microwell plate reader (Infinite M200Pro, Tecan), with a filter for excitation at 485 nm and emission at 535 nm. Dissociation constant (Kd) was calculated using the following equation on Prism 5 (GraphPad): […]
were A is anisotropy, Af and Ab are the anisotropy values for free and bound ligand, respectively. [L]T is the concentration of total fluorescent ligand and [P]T the concentration of the protein.
Subsequent fluorescence polarization experiments were performed according to example 1.

Experiment [2] relates to Calprotectin. In words: Surface plasmon resonance (Biacore 8K) with immobilized Calprotectin. It is filed as binding, human. The conditions noted are these: highest concentration tested (500 nM). The procedure:
In order to complement and validate the results obtained by FP, binding responses and kinetics of peptides with immobilized Calprotectin were analysed by SPR. The experiments were performed using a Biacore™ 8K instrument (GE Healthcare). Calprotectin (at 5 μg/mL) was dissolved in 10 mM acetate buffer (pH 5.0) and immobilized on a CM5 series S chip by standard amine coupling method in running buffer (10 mM HEPES pH 7.4, 150 mM NaCl, 2 mM CaCl2, and 0.005% v/v Tween-20) at 25° C. Typical immobilization levels were 3000 resonance units (RUs). Reference cell was treated in the same way but without the injection of protein. A single concentration for each peptide (500 nM) was injected in running buffer (10 mM HEPES pH 7.4, 150 mM NaCl, 2 mM CaCl2, 0.005% v/v Tween-20 and 0.5% v/v DMSO) to measure the binding level. For the measurement of binding kinetics and dissociation constants, five serial dilutions (3-fold) of peptides were prepared in running buffer (with 0.5% DMSO) and analysed in single cycle kinetics mode with the contact and dissociation times of 90 s and 120 s, respectively.
The structure-activity relationship (SAR) analysis of Peptide 3 was assessed by synthesizing a large number of variants of Peptide 3 in which only one amino acid was altered at a time and the binding affinity was measured by surface plasmon resonance (SPR) and fluorescence polarization (FP).

The target in experiment [3] is T1, Calprotectin (Homo sapiens, UniProt P05109+P06702).
T1 sequence (P05109 1-93): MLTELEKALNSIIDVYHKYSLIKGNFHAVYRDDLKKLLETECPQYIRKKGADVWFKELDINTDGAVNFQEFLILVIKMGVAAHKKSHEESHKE
T1 sequence (P06702 1-114): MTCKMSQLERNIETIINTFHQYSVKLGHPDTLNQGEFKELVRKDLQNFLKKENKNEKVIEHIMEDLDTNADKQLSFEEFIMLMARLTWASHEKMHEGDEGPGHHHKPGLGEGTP
In words: Sandwich ELISA with biotinylated calprotectin binding peptide and Strep-HRP. Conditions: incubation times of 60 minutes. How it is done:
The wells of 96 well Immulon 4 HBX-Extra High Binding plates (Thermo Fisher Scientific) were coated by overnight incubation at 4° C. with 80 μL of a 0.5 μg/mL solution of anti-calprotectin rabbit polyclonal antibody in Na2HCO3 (0.2 M, pH 9.4). The plates were rinsed four times with 200 μL of washing buffer (25 mM Tris, 150 mM NaCl, 2 mM CaCl2, PH 7.4, with 0.05% v/v Tween-20) per well. Then, all the wells were blocked by incubation with 300 μL of blocking buffer (25 mM Tris, 150 mM NaCl, pH 7.4, with 0.05% v/v Tween-20 and 3% w/v BSA) for 1 h at room temperature with shaking. After this time, the blocking buffer was removed and 80 μL of calprotectin was added in dilution buffer (wash buffer with 1% w/v BSA) for 1h at room temperature with shaking. The wells were washed 4 times with washing buffer. […] The solution was removed and the wells were washed 6times with washing buffer. 80 μL of TMB substrate (ready to use solution, SigmaAldrich) were added for 30 minutes and the reaction was stopped with 40 μL of sulfuric acid (2 M). The absorbance was read at 450 nm in a microwell plate reader (Infinite M200Pro, Tecan).
(In an ELISA, binding on a coated surface is turned into a signal by an enzyme label.)

Like-named read-outs stand apart in the source and are kept apart here. Ends that are not written are not given here.

As for “SCQCPWDLFSQHSLSDCCD (cyclised or stapled)”, in experiment [1], the “affinity to recombinant calprotectin (in words)” value (“affinity” for short) is given as “excellent binding affinity”.
As for RCPECVAFPMFQCHWYCG [peptide 3], the “affinity” value in experiment [1] is reported as “excellent binding affinity”. In the experiment on Calprotectin [2], this substance had an SPR signal change of about 40 response units.
Regarding “GCDLAHQPCPLYKCTKCP (cyclised or stapled)”, the “affinity” value in experiment [1] is given as “excellent binding affinity”.
For “VCQQTASRCPVWECQRCP (not fully specified; cyclised or stapled)”, the “affinity” value in experiment [1] was “excellent binding affinity”.
Take “WCTQSPCPLYDSHQCSCK (not fully specified; cyclised or stapled)”: the “affinity” value in experiment [1] is recorded as “excellent binding affinity”.
On the same count and under the same terms, as for “CQCPWDLFSQHSLSDCCD (cyclised or stapled)”, the entry is “excellent binding affinity”.
Regarding “Strep-HRP biotinylated peptide complex: linear peptide 3-biotin pre-mixed with streptavidin conjugated horse radish peroxidase (RSPESVAFPMFQSHWYSG; also: biotin, end not given here, non-covalent complex with streptavidin-HRP)”, the detectable calprotectin concentration entry with Calprotectin [3] is recorded as “below 5 nM”.
Consider “ACRTCPLFTCPSCG (not fully specified; cyclised or stapled)”, for which the “affinity” value in experiment [1] is listed as “excellent binding affinity”.
On the same count and under the same terms, the result for CTQSPCPLYDSHQCSCK (cyclised or stapled) reads “excellent binding affinity”.
As to “VCPCPLFRAHGCSRFSCQ (not fully specified; cyclised or stapled)”, the “affinity” value in experiment [1] is on record as “excellent binding affinity”.
Take “RSPESVAFPMFQSHWYSG [linear peptide 3, fully linear peptide comprising only serines instead of cysteines]”: the results for the “affinity” value in experiment [1] (listed as RSPESVAFPMFQSHWYSG) and in experiment [1] (listed as fully linear peptide) were “excellent binding affinity” and “comparable affinities”, respectively.
Turning to “TCPLNRTQCPLYACTTCP (not fully specified; cyclised or stapled)”, the “affinity” value in experiment [1] was “excellent binding affinity”.
